From publication PMC11762167, “G Protein-Coupled Receptor 17 Inhibits Glucagon-like Peptide-1 Secretion via a Gi/o-Dependent Mechanism in Enteroendocrine Cells” (Biomolecules, 2024)
pEC50: −log10 of the molar value.

What was measured:
GLUTag cells = experiment: Endpoint cAMP (HTRF) in control-transduced GLUTag cells; assay type: cell-based, murine; design: Mean Diff. of cAMP, MDL29,951 vs FSK alone (Tukey): unit not given here; details: for Mean Diff. of cAMP, MDL29,951 vs FSK alone (Tukey): Ctl
Protocol: (§1) GLUTag cells were maintained in Dulbecco’s Modified Eagle Medium (DMEM) supplemented with 10% fetal bovine serum and 1% penicillin–streptomycin in a humidified incubator at 37 °C and 5% CO2. For adenovirus transduction, GLUTag cells were seeded into poly-D-lysine coated 96-well plates or 4-chamber slides. The next day, cells were transduced with adenoviruses (100–1250 viral particles per cell at time of seeding) as indicated. After 24–30 h, adenovirus-containing media was changed to serum-free growth media for overnight serum starvation. The following day, GLUTag cells were used for cAMP or calcium signaling assays, GLP-1 secretion assays, or immunostaining and imaging.
(§2) Endpoint cAMP measurements were conducted as follows. GLUTag cells were seeded into poly-D-lysine-coated 96-well plates and transduced with adenovirus as specified above and then tested for cAMP signaling. Medium was removed and cells were washed with cAMP stimulation buffer (Hanks’ balanced salt solution (HBSS), 20 mM HEPES, pH 7.4) and then incubated in cAMP stimulation buffer for 30 min at 37 °C and 5% CO2. Cells were then treated for 30 min with agonist and forskolin in the presence of 500 µM IBMX at 37 °C and 5% CO2. Stimulation buffer was then decanted, and cAMP lysis buffer (50 mM HEPES, 10 mM CaCl2, 0.35% Triton X-100, and 500 µM IBMX) was added and shaken at 700 rpm for 1 h. Lysate was transferred to a 384-well plate, and the cAMP levels were quantified using the Cisbio HTRF cAMP (Gi kit; Revvity, Waltham, MA, USA) according to the manufacturer’s protocol.

hGPR17L-V96M = biological target: T1, hGPR17L-V96M (Homo sapiens, UniProt Q13304, V96M); experiment: Endpoint cAMP in GLUTag cells expressing hGPR17L-V96M; assay type: cell-based
T1 construct: host or cells: GLUTag cells, adenoviral transduction
T1 sequence (Q13304 whole entry V96M): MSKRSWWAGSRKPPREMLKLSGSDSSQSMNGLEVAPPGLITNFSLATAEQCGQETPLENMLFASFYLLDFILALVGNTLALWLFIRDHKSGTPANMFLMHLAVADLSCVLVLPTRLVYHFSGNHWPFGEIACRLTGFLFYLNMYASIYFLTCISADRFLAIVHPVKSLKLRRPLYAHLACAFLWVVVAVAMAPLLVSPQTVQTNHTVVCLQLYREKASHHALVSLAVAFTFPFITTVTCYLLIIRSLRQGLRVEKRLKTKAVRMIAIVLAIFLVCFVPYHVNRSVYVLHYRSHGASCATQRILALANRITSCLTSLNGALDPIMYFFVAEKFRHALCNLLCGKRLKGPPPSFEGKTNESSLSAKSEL
Protocol: as §1, §2

mGPR17 = mGPR17 (Mus musculus, UniProt Q6NS65); experiment: Membrane β-arrestin recruitment in HEK293 cells transfected with mGPR17; assay type: cell-based
Sequence of mGPR17 (Q6NS65 whole entry): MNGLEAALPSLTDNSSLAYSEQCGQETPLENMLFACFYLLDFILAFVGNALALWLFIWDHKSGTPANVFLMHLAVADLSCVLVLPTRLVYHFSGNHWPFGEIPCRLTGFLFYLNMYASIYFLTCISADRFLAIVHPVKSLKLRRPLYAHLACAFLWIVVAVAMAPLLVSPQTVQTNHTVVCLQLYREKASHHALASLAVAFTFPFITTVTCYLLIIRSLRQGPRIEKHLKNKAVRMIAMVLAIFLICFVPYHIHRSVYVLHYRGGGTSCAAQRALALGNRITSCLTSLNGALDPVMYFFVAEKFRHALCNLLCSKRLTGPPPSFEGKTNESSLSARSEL
Protocol: Membrane β-arrestin recruitment measurements were conducted using a luminescent membrane β-arrestin recruitment reporter assay. HEK293 cells were seeded into white, opaque, poly-D-lysine-coated 96-well plates and transiently transfected using Lipofectamine 3000 (Thermo Fisher Scientific, Waltham, MA, USA) according to the manufacturer’s protocol on the following day. At 48 h post-transfection, cells were washed twice with assay buffer (HBSS, 20 mM HEPES, pH 7.4) and allowed to equilibrate to room temperature for 15 min in assay buffer. Cells were then loaded with coelenterazine h (Nanolight Technology, Prolume Ltd., Lakeside, AZ, USA; 5 µM final concentration) for 5 min in the dark. Luminescence was read using a SpectraMax iD3 (Molecular Devices) with 1 s integration time. Baseline luminescence was read every 2 min for 6 min. Agonist was added and then luminescence was read every 2 min for 30 min.

hGPR17L = hGPR17L (Homo sapiens, UniProt Q13304); experiment: Calcium flux (Calcium 6) in GLUTag cells expressing hGPR17L; assay type: cell-based; design: host or cells: GLUTag cells (murine enteroendocrine line), adenoviral transduction; Mean Diff. Ctl vs. hGPR17L: unit not given here; details: Figure 1B
Sequence of hGPR17L (Q13304 whole entry): as the sequence (Q13304 whole entry V96M) above, with M96V counted along it
Protocol: as §1
GLUTag cells were seeded into black, clear bottom, poly-D-lysine-coated 96-well plates. Cells were transduced and serum starved as specified above. Growth medium was then replaced with 100 μL/well assay buffer (HBSS, 20 mM HEPES, pH 7.4) and 100 μL/well Calcium 6 loading dye (R8190; Molecular Devices, San Jose, CA, USA). During dye loading, cells were incubated at 37 °C and 5% CO2 for 2 h. MDL29,951 or KCl was added to the wells and fluorescence (485 nm excitation, 525 nm emission, and 515 nm automatic emission cutoff) was measured using a Molecular Devices FlexStation3 (Molecular Devices) at 37 °C. For experiments with PTX, cells were pretreated with 100 ng/mL PTX overnight and 100 ng/mL PTX was included with Calcium 6 loading dye for calcium flux assays. For experiments with YM-254890, cells were pretreated for 30 min at 37 °C.

SMILES: O=C(O)CCc1c(C(=O)O)[nH]c2cc(Cl)cc(Cl)c12 [MDL29,951]
- effect on PGE2-stimulated cAMP levels (GLUTag cells; 300 nM PGE2, control transduction condition): no effect
- effect on cAMP levels upon PMA treatment (GLUTag cells; 300 nM PMA, control-transduced cells): no effect
- Mean Diff. of cAMP, MDL29,951 vs FSK alone (Tukey) (GLUTag cells; log [MDL29,951] (M) -4.0): 0.00975
- Mean Diff. of cAMP, MDL29,951 vs FSK alone (Tukey) (GLUTag cells; log [MDL29,951] (M) -4.6): 0.066
- Mean Diff. of cAMP, MDL29,951 vs FSK alone (Tukey) (GLUTag cells; log [MDL29,951] (M) -5.2): 0.1185
- Mean Diff. of cAMP, MDL29,951 vs FSK alone (Tukey) (GLUTag cells; log [MDL29,951] (M) -5.8): 0.114
- Mean Diff. of cAMP, MDL29,951 vs FSK alone (Tukey) (GLUTag cells; log [MDL29,951] (M) -6.4): 0.183
- Mean Diff. of cAMP, MDL29,951 vs FSK alone (Tukey) (GLUTag cells; log [MDL29,951] (M) -7.0): 0.173
- Mean Diff. of cAMP, MDL29,951 vs FSK alone (Tukey) (GLUTag cells; log [MDL29,951] (M) -7.6): 0.2335
- Mean Diff. of cAMP, MDL29,951 vs FSK alone (Tukey) (GLUTag cells; log [MDL29,951] (M) -8.2): 0.2168
- Mean Diff. of cAMP, MDL29,951 vs FSK alone (Tukey) (GLUTag cells; log [MDL29,951] (M) -8.8): 0.0115
- Mean Diff. of cAMP, MDL29,951 vs FSK alone (Tukey) (GLUTag cells; log [MDL29,951] (M) -9.4): -0.09325
- effect on forskolin-stimulated cAMP (GLUTag cells; control-transduced cells, 10 µM forskolin): no effect
- effect on forskolin-stimulated cAMP (hGPR17L-V96M; 10 µM forskolin, GLUTag hGPR17L-V96M): no significant effect
- Mean Diff. (Tukey's multiple comparisons test), cAMP, Row 10 vs. Row 11 (hGPR17L-V96M; hGPR17L-V96M (200), log [MDL29,951] (M) -4.0 vs. Vehicle, Forskolin stimulation, Figure 4B): -6.053
- Mean Diff. (Tukey's multiple comparisons test), cAMP, Row 9 vs. Row 11 (hGPR17L-V96M; hGPR17L-V96M (200), log [MDL29,951] (M) -4.6 vs. Vehicle, Forskolin stimulation, Figure 4B): -5.593
- Mean Diff. (Tukey's multiple comparisons test), cAMP, Row 8 vs. Row 11 (hGPR17L-V96M; hGPR17L-V96M (200), log [MDL29,951] (M) -5.2 vs. Vehicle, Forskolin stimulation, Figure 4B): -7.097
- Mean Diff. (Tukey's multiple comparisons test), cAMP, Row 7 vs. Row 11 (hGPR17L-V96M; hGPR17L-V96M (200), log [MDL29,951] (M) -5.8 vs. Vehicle, Forskolin stimulation, Figure 4B): -12.44
- Mean Diff. (Tukey's multiple comparisons test), cAMP, Row 6 vs. Row 11 (hGPR17L-V96M; hGPR17L-V96M (200), log [MDL29,951] (M) -6.4 vs. Vehicle, Forskolin stimulation, Figure 4B): -8.68
- Mean Diff. (Tukey's multiple comparisons test), cAMP, Row 5 vs. Row 11 (hGPR17L-V96M; hGPR17L-V96M (200), log [MDL29,951] (M) -7.0 vs. Vehicle, Forskolin stimulation, Figure 4B): -6.907
- Mean Diff. (Tukey's multiple comparisons test), cAMP, Row 4 vs. Row 11 (hGPR17L-V96M; hGPR17L-V96M (200), log [MDL29,951] (M) -7.6 vs. Vehicle, Forskolin stimulation, Figure 4B): -4.737
- Mean Diff. (Tukey's multiple comparisons test), cAMP, Row 3 vs. Row 11 (hGPR17L-V96M; hGPR17L-V96M (200), log [MDL29,951] (M) -8.2 vs. Vehicle, Forskolin stimulation, Figure 4B): -3.133
- Mean Diff. (Tukey's multiple comparisons test), cAMP, Row 2 vs. Row 11 (hGPR17L-V96M; hGPR17L-V96M (200), log [MDL29,951] (M) -8.8 vs. Vehicle, Forskolin stimulation, Figure 4B): 3.127
- Mean Diff. (Tukey's multiple comparisons test), cAMP, Row 1 vs. Row 11 (hGPR17L-V96M; hGPR17L-V96M (200), log [MDL29,951] (M) -9.4 vs. Vehicle, Forskolin stimulation, Figure 4B): -1.35
- β-arrestin Emax (Peak ΔRLU/RLU) (mGPR17): 0.54±0.03
- β-arrestin Potency (pEC50) (mGPR17): 6.69±0.10
- pEC50 (mGPR17; read-out: β-arrestin Potency EC50): 6.70
- Mean Diff. Ctl vs. hGPR17L (hGPR17L; Ctl vs. hGPR17L at log [MDL29,951] (M) -4.5): -0.777
- Mean Diff. Ctl vs. hGPR17L (hGPR17L; Ctl vs. hGPR17L at log [MDL29,951] (M) -5.0): -0.707
- Mean Diff. Ctl vs. hGPR17L (hGPR17L; Ctl vs. hGPR17L at log [MDL29,951] (M) -5.5): -0.62
- Mean Diff. Ctl vs. hGPR17L (hGPR17L; Ctl vs. hGPR17L at log [MDL29,951] (M) -6.0): -0.5407
- Mean Diff. Ctl vs. hGPR17L (hGPR17L; Ctl vs. hGPR17L at log [MDL29,951] (M) -6.4): -0.458
